# Test results: PMC9945182 (Chemical Research in Toxicology, 2023)
# Read-outs that look alike come from different tables or passages of the source.
# Columns and labels:
# CYP2A6 = target: T1, CYP2A6 (Homo sapiens, UniProt P11509); assay type: biochemical; settings: 10 μM inhibitor; cotinine substrate; CYP2A6 microsomes
# T1 sequence (P11509 1-494): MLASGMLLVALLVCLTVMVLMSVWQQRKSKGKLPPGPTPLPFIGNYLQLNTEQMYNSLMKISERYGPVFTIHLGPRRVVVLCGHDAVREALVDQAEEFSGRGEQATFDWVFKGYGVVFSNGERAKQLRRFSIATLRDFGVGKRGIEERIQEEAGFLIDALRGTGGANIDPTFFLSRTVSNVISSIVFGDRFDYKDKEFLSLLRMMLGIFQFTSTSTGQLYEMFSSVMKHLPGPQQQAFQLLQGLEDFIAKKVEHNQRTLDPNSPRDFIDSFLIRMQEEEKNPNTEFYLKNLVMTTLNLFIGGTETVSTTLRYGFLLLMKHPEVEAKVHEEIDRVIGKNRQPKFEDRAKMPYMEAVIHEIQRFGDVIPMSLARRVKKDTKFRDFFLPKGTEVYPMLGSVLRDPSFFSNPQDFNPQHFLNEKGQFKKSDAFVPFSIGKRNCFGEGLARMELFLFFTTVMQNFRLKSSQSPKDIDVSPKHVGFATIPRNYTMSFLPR
# UGT1A4 = target: T2, UGT1A4 (Homo sapiens, UniProt P22310); assay type: biochemical; settings: UGT1A4 microsomes; nicotine or cotinine as substrate; screening
# T2 sequence (P22310 29-534): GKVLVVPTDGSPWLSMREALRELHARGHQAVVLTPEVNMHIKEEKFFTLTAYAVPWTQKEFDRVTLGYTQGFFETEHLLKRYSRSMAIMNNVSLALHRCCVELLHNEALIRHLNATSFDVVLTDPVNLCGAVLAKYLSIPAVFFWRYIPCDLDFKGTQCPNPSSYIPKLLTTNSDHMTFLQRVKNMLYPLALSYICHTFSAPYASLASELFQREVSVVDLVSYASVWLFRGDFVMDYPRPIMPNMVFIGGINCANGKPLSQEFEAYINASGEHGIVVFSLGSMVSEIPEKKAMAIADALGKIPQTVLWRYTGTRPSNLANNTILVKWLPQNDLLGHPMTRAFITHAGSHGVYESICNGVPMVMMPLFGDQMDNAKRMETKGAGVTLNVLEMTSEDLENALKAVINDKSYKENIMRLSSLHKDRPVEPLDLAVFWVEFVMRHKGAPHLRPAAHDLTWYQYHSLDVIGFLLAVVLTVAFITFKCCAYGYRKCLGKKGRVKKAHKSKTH
# UGT2B10 [1] = target: T3, UGT2B10 (Homo sapiens, UniProt P36537); assay type: biochemical; settings: UGT2B10 microsomes; nicotine or cotinine as substrate; screening
# T3 sequence (P36537 24-528): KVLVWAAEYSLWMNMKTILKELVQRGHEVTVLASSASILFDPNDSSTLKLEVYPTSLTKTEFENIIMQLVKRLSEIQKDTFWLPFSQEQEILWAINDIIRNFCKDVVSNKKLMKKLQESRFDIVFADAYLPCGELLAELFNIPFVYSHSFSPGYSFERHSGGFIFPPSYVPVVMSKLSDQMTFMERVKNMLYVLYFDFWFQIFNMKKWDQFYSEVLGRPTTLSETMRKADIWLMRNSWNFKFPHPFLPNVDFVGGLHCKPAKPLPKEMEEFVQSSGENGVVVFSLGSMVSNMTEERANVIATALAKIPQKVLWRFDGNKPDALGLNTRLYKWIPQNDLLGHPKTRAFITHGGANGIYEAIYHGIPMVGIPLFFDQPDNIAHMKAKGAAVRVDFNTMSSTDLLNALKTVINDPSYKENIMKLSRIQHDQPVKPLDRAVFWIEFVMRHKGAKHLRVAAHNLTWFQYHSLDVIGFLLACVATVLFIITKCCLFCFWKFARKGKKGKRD
# [2] = tested on: human liver microsomes (HLM); assay: Inhibition of nicotine to nornicotine formation in pooled human liver microsomes; assay type: biochemical; settings: nicotine 500 μM
# CYP2B6 = target: T4, CYP2B6 (Homo sapiens, UniProt P20813); assay type: biochemical; settings: for inhibition of cotinine formation: nicotine substrate, CYP2B6 microsomes
# T4 sequence (P20813 1-491): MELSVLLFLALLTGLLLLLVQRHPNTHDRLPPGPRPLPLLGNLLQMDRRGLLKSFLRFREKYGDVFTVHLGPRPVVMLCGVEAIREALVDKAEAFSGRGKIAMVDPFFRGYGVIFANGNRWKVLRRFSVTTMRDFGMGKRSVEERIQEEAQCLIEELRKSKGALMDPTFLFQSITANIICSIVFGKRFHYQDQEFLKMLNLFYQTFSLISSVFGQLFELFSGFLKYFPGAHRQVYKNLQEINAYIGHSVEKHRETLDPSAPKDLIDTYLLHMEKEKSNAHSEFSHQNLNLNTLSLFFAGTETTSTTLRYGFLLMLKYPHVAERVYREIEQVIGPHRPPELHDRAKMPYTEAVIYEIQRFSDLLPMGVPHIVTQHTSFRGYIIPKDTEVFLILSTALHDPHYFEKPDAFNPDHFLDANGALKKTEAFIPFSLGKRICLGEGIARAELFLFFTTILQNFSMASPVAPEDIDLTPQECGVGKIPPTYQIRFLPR
# [3] = tested on: human liver microsomes (HLM); assay: Inhibition of 3HC to 3HC-Gluc formation in human liver microsomes; assay type: biochemical; settings: up to 100 μM CBD
# UGT2B10 [4] = target: T3, UGT2B10; settings: previous studies; cited from earlier work
# cigarette smokers = settings: single 800 mg oral dose, compared with a placebo group; cited from earlier work
# [5] = human, microsomes from CYP2B6-overexpressing HEK293 cells, pH 7.4, probe nicotine (cotinine formation)
SMILES,inhibition of COX formation (CYP2A6) [%],inhibition of nicotine-Gluc or cotinine-Gluc formation (UGT1A4),inhibition of nicotine-Gluc or cotinine-Gluc formation (UGT2B10 [1]),IC50 [2] [µM],inhibition of cotinine formation (CYP2B6; 1 μM inhibitor) [%],inhibition of cotinine formation (CYP2B6; 10 μM inhibitor) [%],"IC50 (CYP2B6; cotinine formation, nicotine 500 μM, rec CYP2B6 microsomes) [µM]",inhibition of 3HC-Gluc formation [3] [%],IC50 (CYP2B6) [µM],"inhibition at 30 min, 1 µM (CYP2B6; [5]) [%]","inhibition at 30 min, 10 µM (CYP2B6; [5]) [%]",inhibition of nicotine-Gluc formation by UGT2B10 (UGT2B10 [4]),effect on cigarette cues (cigarette smokers)
"C=C(C)[C@@H]1CCC(CO)=C[C@H]1c1c(O)cc(CCCCC)cc1O [7-OH-CBD, 7-hydroxy-cannabidiol]",40,no significant inhibition,no significant inhibition,7.9 ± 2.5,35,50,15 ± 5.7,–,–,–,–,–,–
"C=C(C)[C@@H]1CCC(C)=C[C@H]1c1c(O)cc(CCCCC)cc1O [CBD, cannabidiol]",–,no significant inhibition,no significant inhibition,5.1 ± 1.1,–,–,–,< 45,4.2 ± 2.7,50,65,does not inhibit,reduced the salience and pleasantness of cigarette cues
